# Measured values from PubChem BioAssay AID1918999 (Molecular Pharmacology Branch, DTP, NCI, 2023).
# System: 556581-035-R-J1-PDC complex spheroid growth
# Assay: Anticancer human tumor 556581-035-R-J1-PDC patient-derived ovarian carcinoma cell line growth inhibition [AhR]
# Details: for IC50: curve of first compound; for viability, T/C: stronger effect = lower value
# In short: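 Spheroids combined tumor cells with HUVEC endothelial cells and human MSCs as stroma. AhR antagonists were paired with standard or investigational drugs, each dosed in half-log steps down from near clinical Cmax, or from 10 microM where Cmax was unknown.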
# [1] = second compound 0.1 µM, first compound 0.0316 µM
# [2] = second compound 0.1 µM, first compound 0.1 µM
# [3] = second compound 0.1 µM, first compound 0.316 µM
# [4] = second compound 0.1 µM, first compound 1 µM
# [5] = second compound 0.1 µM, first compound 3.16 µM
# [6] = second compound 0.1 µM, first compound 10 µM
# [7] = second compound 0.316 µM, first compound 0.0316 µM
# [8] = second compound 0.316 µM, first compound 0.1 µM
# [9] = second compound 0.316 µM, first compound 0.316 µM
# [10] = second compound 0.316 µM, first compound 1 µM
# [11] = second compound 0.316 µM, first compound 3.16 µM
# [12] = second compound 0.316 µM, first compound 10 µM
# [13] = second compound 1 µM, first compound 0.0316 µM
# [14] = second compound 1 µM, first compound 0.1 µM
# [15] = second compound 1 µM, first compound 0.316 µM
# [16] = second compound 1 µM, first compound 1 µM
# [17] = second compound 1 µM, first compound 3.16 µM
# [18] = second compound 1 µM, first compound 10 µM
# [19] = second compound 3.16 µM, first compound 0.0316 µM
# [20] = second compound 3.16 µM, first compound 0.1 µM
# [21] = second compound 3.16 µM, first compound 0.316 µM
# [22] = second compound 3.16 µM, first compound 1 µM
# [23] = second compound 3.16 µM, first compound 3.16 µM
# [24] = second compound 3.16 µM, first compound 10 µM
# [25] = second compound 10 µM, first compound 0.0316 µM
# [26] = second compound 10 µM, first compound 0.1 µM
# [27] = second compound 10 µM, first compound 0.316 µM
# [28] = second compound 10 µM, first compound 1 µM
# [29] = second compound 10 µM, first compound 3.16 µM
# [30] = second compound 10 µM, first compound 10 µM
# 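Throughout, for viability, T/C: compound exposure lasted 7 days; 100% = DMSO vehicle control growth.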
compound,measurement,setting,value
CC(C)c1c(-c2ccccc2)nc2c(C#N)c[nH]n2c1=O + Cc1ccccc1N=Nc1ccc(NC(=O)c2ccnn2C)c(C)c1,IC50,second compound 0.1 µM,> 10 µM
same,IC50,second compound 0.316 µM,> 10 µM
same,IC50,second compound 1 µM,> 10 µM
same,IC50,second compound 3.16 µM,> 10 µM
same,IC50,second compound 10 µM,> 10 µM
same,"viability, T/C",[1],106%
same,"viability, T/C",[2],111%
same,"viability, T/C",[3],103%
same,"viability, T/C",[4],104%
same,"viability, T/C",[5],97.7%
same,"viability, T/C",[6],93.4%
same,"viability, T/C",[7],96.7%
same,"viability, T/C",[8],94.1%
same,"viability, T/C",[9],107%
same,"viability, T/C",[10],96.1%
same,"viability, T/C",[11],85.5%
same,"viability, T/C",[12],103%
same,"viability, T/C",[13],110%
same,"viability, T/C",[14],108%
same,"viability, T/C",[15],96%
same,"viability, T/C",[16],106%
same,"viability, T/C",[17],106%
same,"viability, T/C",[18],95.8%
same,"viability, T/C",[19],95.6%
same,"viability, T/C",[20],92.2%
same,"viability, T/C",[21],104%
same,"viability, T/C",[22],83.6%
same,"viability, T/C",[23],96%
same,"viability, T/C",[24],87.9%
same,"viability, T/C",[25],94.7%
same,"viability, T/C",[26],86.8%
same,"viability, T/C",[27],80.9%
same,"viability, T/C",[28],91.5%
same,"viability, T/C",[29],84.5%
same,"viability, T/C",[30],76.9%
CC1COCCN1c1cc(-c2ccnn2C)c2ccnc(-c3ccn[nH]3)c2n1 (stereo not given) + Cc1ccccc1N=Nc1ccc(NC(=O)c2ccnn2C)c(C)c1,IC50,second compound 0.1 µM,0.894 µM
same,IC50,second compound 0.316 µM,> 1 µM
same,IC50,second compound 1 µM,> 1 µM
same,IC50,second compound 3.16 µM,0.752 µM
same,IC50,second compound 10 µM,0.883 µM
same,"viability, T/C","second compound 0.1 µM, first compound 0.00316 µM",104%
same,"viability, T/C","second compound 0.1 µM, first compound 0.01 µM",103%
same,"viability, T/C",[1],101%
same,"viability, T/C",[2],84.8%
same,"viability, T/C",[3],61.5%
same,"viability, T/C",[4],48.6%
same,"viability, T/C","second compound 0.316 µM, first compound 0.00316 µM",102%
same,"viability, T/C","second compound 0.316 µM, first compound 0.01 µM",119%
same,"viability, T/C",[7],101%
same,"viability, T/C",[8],76.8%
same,"viability, T/C",[9],63.9%
same,"viability, T/C",[10],51.8%
same,"viability, T/C","second compound 1 µM, first compound 0.00316 µM",99.6%
same,"viability, T/C","second compound 1 µM, first compound 0.01 µM",108%
same,"viability, T/C",[13],99.5%
same,"viability, T/C",[14],80%
same,"viability, T/C",[15],62.6%
same,"viability, T/C",[16],54.9%
same,"viability, T/C","second compound 3.16 µM, first compound 0.00316 µM",105%
same,"viability, T/C","second compound 3.16 µM, first compound 0.01 µM",103%
same,"viability, T/C",[19],94.8%
same,"viability, T/C",[20],72.6%
same,"viability, T/C",[21],63.8%
same,"viability, T/C",[22],45.4%
same,"viability, T/C","second compound 10 µM, first compound 0.00316 µM",88.9%
same,"viability, T/C","second compound 10 µM, first compound 0.01 µM",104%
same,"viability, T/C",[25],85.3%
same,"viability, T/C",[26],73.3%
same,"viability, T/C",[27],61%
same,"viability, T/C",[28],47.9%
CC1COCCN1c1cc(C2(S(C)(=N)=O)CC2)nc(-c2ccnc3[nH]ccc23)n1 (stereo not given) + Cc1ccccc1N=Nc1ccc(NC(=O)c2ccnn2C)c(C)c1,IC50,second compound 0.1 µM,> 10 µM
same,IC50,second compound 0.316 µM,> 10 µM
same,IC50,second compound 1 µM,> 10 µM
same,IC50,second compound 3.16 µM,> 10 µM
same,IC50,second compound 10 µM,> 10 µM
same,"viability, T/C",[1],100%
same,"viability, T/C",[2],99.5%
same,"viability, T/C",[3],96.6%
same,"viability, T/C",[4],92.1%
same,"viability, T/C",[5],78.4%
same,"viability, T/C",[6],59%
same,"viability, T/C",[7],98.8%
same,"viability, T/C",[8],99.2%
same,"viability, T/C",[9],96.7%
same,"viability, T/C",[10],92%
same,"viability, T/C",[11],80.1%
same,"viability, T/C",[12],58.3%
same,"viability, T/C",[13],100%
same,"viability, T/C",[14],100%
same,"viability, T/C",[15],98.6%
same,"viability, T/C",[16],93.9%
same,"viability, T/C",[17],78.4%
same,"viability, T/C",[18],60%
same,"viability, T/C",[19],95.1%
same,"viability, T/C",[20],98.1%
same,"viability, T/C",[21],95.4%
same,"viability, T/C",[22],88%
same,"viability, T/C",[23],73.9%
same,"viability, T/C",[24],58.8%
same,"viability, T/C",[25],96.1%
same,"viability, T/C",[26],97.2%
same,"viability, T/C",[27],93%
same,"viability, T/C",[28],85.2%
same,"viability, T/C",[29],74.5%
same,"viability, T/C",[30],60.8%
COc1ccc([C@@H](O)c2cc(-c3ncnc4cc(N5CCOCC5)ccc34)c(F)cc2Cl)nn1 + Cc1ccccc1N=Nc1ccc(NC(=O)c2ccnn2C)c(C)c1,IC50,second compound 0.1 µM,5.52 µM
same,IC50,second compound 0.316 µM,4.75 µM
same,IC50,second compound 1 µM,> 10 µM
same,IC50,second compound 3.16 µM,5.11 µM
same,IC50,second compound 10 µM,4.4 µM
same,"viability, T/C",[1],107%
same,"viability, T/C",[2],104%
same,"viability, T/C",[3],102%
same,"viability, T/C",[4],78.2%
same,"viability, T/C",[5],59.4%
same,"viability, T/C",[6],41.3%
same,"viability, T/C",[7],104%
same,"viability, T/C",[8],97.2%
same,"viability, T/C",[9],100%
same,"viability, T/C",[10],78%
same,"viability, T/C",[11],55.8%
same,"viability, T/C",[12],41.2%
same,"viability, T/C",[13],112%
same,"viability, T/C",[14],106%
same,"viability, T/C",[15],110%
same,"viability, T/C",[16],75.5%
same,"viability, T/C",[17],56.4%
same,"viability, T/C",[18],47.1%
same,"viability, T/C",[19],89.1%
same,"viability, T/C",[20],95%
same,"viability, T/C",[21],89.1%
same,"viability, T/C",[22],74.6%
same,"viability, T/C",[23],56.8%
same,"viability, T/C",[24],41.5%
same,"viability, T/C",[25],97.8%
same,"viability, T/C",[26],93.4%
same,"viability, T/C",[27],87.3%
same,"viability, T/C",[28],76.9%
same,"viability, T/C",[29],50.4%
same,"viability, T/C",[30],44.8%
O=C(C=Cn1cnc(-c2cc(C(F)(F)F)cc(C(F)(F)F)c2)n1)NNc1cnccn1 + Cc1ccccc1N=Nc1ccc(NC(=O)c2ccnn2C)c(C)c1,IC50,second compound 0.1 µM,> 3 µM
same,IC50,second compound 0.316 µM,1.75 µM
same,IC50,second compound 1 µM,> 3 µM
same,IC50,second compound 3.16 µM,> 3 µM
same,IC50,second compound 10 µM,> 3 µM
same,"viability, T/C","second compound 0.1 µM, first compound 0.00949 µM",100%
same,"viability, T/C","second compound 0.1 µM, first compound 0.03 µM",99.8%
same,"viability, T/C","second compound 0.1 µM, first compound 0.0949 µM",80.3%
same,"viability, T/C","second compound 0.1 µM, first compound 0.3 µM",78.5%
same,"viability, T/C","second compound 0.1 µM, first compound 0.949 µM",72.5%
same,"viability, T/C","second compound 0.1 µM, first compound 3 µM",54.4%
same,"viability, T/C","second compound 0.316 µM, first compound 0.00949 µM",106%
same,"viability, T/C","second compound 0.316 µM, first compound 0.03 µM",92.7%
same,"viability, T/C","second compound 0.316 µM, first compound 0.0949 µM",91%
same,"viability, T/C","second compound 0.316 µM, first compound 0.3 µM",73.3%
same,"viability, T/C","second compound 0.316 µM, first compound 0.949 µM",60.7%
same,"viability, T/C","second compound 0.316 µM, first compound 3 µM",40.8%
same,"viability, T/C","second compound 1 µM, first compound 0.00949 µM",93%
same,"viability, T/C","second compound 1 µM, first compound 0.03 µM",93.4%
same,"viability, T/C","second compound 1 µM, first compound 0.0949 µM",85.5%
same,"viability, T/C","second compound 1 µM, first compound 0.3 µM",84.4%
same,"viability, T/C","second compound 1 µM, first compound 0.949 µM",72.5%
same,"viability, T/C","second compound 1 µM, first compound 3 µM",49.7%
same,"viability, T/C","second compound 3.16 µM, first compound 0.00949 µM",80.3%
same,"viability, T/C","second compound 3.16 µM, first compound 0.03 µM",87.7%
same,"viability, T/C","second compound 3.16 µM, first compound 0.0949 µM",79.8%
same,"viability, T/C","second compound 3.16 µM, first compound 0.3 µM",68.4%
same,"viability, T/C","second compound 3.16 µM, first compound 0.949 µM",72.2%
same,"viability, T/C","second compound 3.16 µM, first compound 3 µM",60.4%
same,"viability, T/C","second compound 10 µM, first compound 0.00949 µM",81.1%
same,"viability, T/C","second compound 10 µM, first compound 0.03 µM",81.6%
same,"viability, T/C","second compound 10 µM, first compound 0.0949 µM",82.7%
same,"viability, T/C","second compound 10 µM, first compound 0.3 µM",82.4%
same,"viability, T/C","second compound 10 µM, first compound 0.949 µM",71.9%
same,"viability, T/C","second compound 10 µM, first compound 3 µM",56.9%
